Experimental data taken from US4180559A, “Coated 1-(2-chlorodibenzo[b,f]oxepin-10-yl)-4-methylpiperazine compositions” (Richardson-Merrell Inc., priority 1978, dated 1979).
≈ marks a conversion by molar mass, not a printed value. Entries after “also recorded” stand apart in the source; their conditions may differ. Read-outs that look alike come from different tables or passages of the source.

Experiments:
[1] = Solubility of the compound in aqueous solutions and in 50% methanol-water at various pH; format: physicochemical
Excerpt: On the other hand, if the drug is exposed to the relatively alkaline portions of the intestinal tract, i.e., a pH greater than 7.5, the drug remains undissolved and is unavailable for absorption in humans.

[2] = Absorption into the bloodstream (general statement); settings: uncoated drug; degradation at low pH in the stomach
[3] = Anti-psychotic properties and liabilities (general statement)
[4] = Acid hydrolysis / half-life of the compound at various pH and temperature; format: physicochemical; settings: for half-life: 50% methanol-water
Excerpt: However, paradoxically, under the acidic conditions of maximum dissolution and absorption, the drug substance is itself the most labile from a chemical point of view. As previously indicated, the compound belongs to a class of enamines that are readily hydrolyzed under acidic aqueous conditions.

solubility ([1]; 50% methanol-water system, pH 8.0): totally insoluble | solubility ([1]; aqueous solution, pH 1.0, read-out: solubility): 20000 µg/mL (≈ 61.2 mM) | solubility ([1]; aqueous solution, pH 3.0, read-out: solubility): 15000 µg/mL (≈ 45.9 mM) | solubility ([1]; aqueous solution, pH 4.3, read-out: solubility): 4000 µg/mL (≈ 12.2 mM) | solubility ([1]; aqueous solutions, pH greater than 7.5): insoluble | solubility ([1]; organic solvent or mixture, 50% methanol-water system, pH 7.0, read-out: solubility): 2000 µg/mL (≈ 6.12 mM) | absorption into the bloodstream [2]: poor and erratic absorption | extrapyramidal liabilities [3]: minimal | half-life ([4]; pH 1.5, 25° C., pH 1.5, 50% (v/v) methanol-water): 0.12 h | half-life ([4]; pH 1.5, 37° C., pH 1.5): 0.12 h | half-life ([4]; pH 6, 25° C., pH 6.0, 50% (v/v) methanol-water): 269 h | half-life ([4]; pH 6, 37° C., pH 6.0): 159 h | acid lability ([4]; aqueous conditions): high degree of acid lability
SMILES: CN1CCN(C2=Cc3cc(Cl)ccc3Oc3ccccc32)CC1 [1-(2-Chlorodibenzo[b,f]oxepin-10-yl)-4-methylpiperazine]
anti-psychotic properties [3]: potent anti-psychotic properties; also recorded: particularly useful antipsychotic properties | cardiovascular liabilities [3]: minimal
